Results from patent US20240246941A1, “SUBSTITUTED 4-(3-AMINOPROP-1-YL)AMINOQUINOLINE ANALOGS AS MODULATORS OF MELANOMA-ASSOCIATED ANTIGEN 11 UBIQUITIN LIGASE” (ST. JUDE CHILDREN'S RESEARCH HOSPITAL, INC., priority 2020, published 2024).

molecular target: MAGE-A11:PCF11 (Homo sapiens (Human), UniProt P43364); test: TR-FRET single point screening at 15 μM; format: binding; design: unit not given here; settings: single point TR-FRET screening at 15 μM against MAGE-A11:PCF11
Outline: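 Competition TR-FRET: compounds at final 15 μM mixed with 200 nM FAM-PCF11_4, 5 nM GST-MAGEA11 and 5 nM Tb-anti-GST in Tris pH 7.5/MgCl2/BSA/DTT buffer, room temperature, 90 min. Emission ratio 520/490 nm (340 nm excitation) expressed as % inhibition relative to positive and negative controls.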

MAGE-A11:PCF11, sequence (P43364 218-429): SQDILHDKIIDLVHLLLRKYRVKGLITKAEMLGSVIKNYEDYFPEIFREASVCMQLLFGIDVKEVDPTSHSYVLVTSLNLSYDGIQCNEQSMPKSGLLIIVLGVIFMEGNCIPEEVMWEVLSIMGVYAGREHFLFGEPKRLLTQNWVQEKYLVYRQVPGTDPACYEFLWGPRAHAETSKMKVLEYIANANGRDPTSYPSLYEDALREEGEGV

| Structure (SMILES) | TR-FRET signal |
| --- | --- |
| CCc1nc2ccccc2c(NC(=O)CN2CCN(c3ccccc3)CC2)c1C [SJ000111681] | 6.894 |
| COc1ccc(CN(CCCCNc2ccnc3cc(Cl)ccc23)Cc2ccccc2)cc1OC [SJ000522728] | 0.05797 |
| FC(F)(F)c1cccc(CN(CCCCNc2ccnc3cc(Cl)ccc23)Cc2ccccc2)c1 [SJ000520455] | 26.38 |
| COc1ccccc1N1CCN(c2c(S(=O)(=O)c3ccc(C)cc3)cnc3ccc(C)cc23)CC1 [SJ000117066] | −92.89 |
| COc1cc2ncc(S(=O)(=O)c3ccc(C)cc3)c(N3CCN(C)CC3)c2cc1OC [SJ000083951] | 1.313 |
| O=[N+]([O-])c1cccc(CN(CCCCNc2ccnc3cc(Cl)ccc23)Cc2ccccc2)c1 [SJ000361201] | 24.37 |
| CCN(CC)CCCC(C)Nc1c2ccc(Cl)cc2nc2ccc(OC)cc12 (centres unmarked) [SJ000285202] | −265.7 |
| CCN1CCN(c2c(S(=O)(=O)c3ccc(C)cc3)cnc3ccc(C)cc23)CC1 [SJ000083961] | 0.2213 |
| Cc1cccc(CN(CCCCNc2ccnc3cc(Cl)ccc23)Cc2ccccc2)c1 [SJ000361206] | 29.54 |
| CCCN(CCCNc1c2ccc(Cl)cc2nc2ccc(OC)cc12)Cc1nccs1 [SJ000522988] | −117.5 |
| CCc1ccc2ncc(S(=O)(=O)c3ccccc3)c(N3CCN(CC)CC3)c2c1 [SJ000083957] | 3.238 |
| COc1ccc2ncc(S(=O)(=O)c3ccc(C)cc3)c(N3CCN(Cc4ccccc4)CC3)c2c1 [SJ000117085] | −82.22 |
| COc1ccc(F)cc1CN1CCC(Nc2ccnc3cc(Cl)ccc23)CC1 [SJ000357493] | 6.153 |
| Cc1ccc(S(=O)(=O)c2cnc3ccccc3c2N2CCN(c3ccccc3)CC2)cc1 [SJ000117047] | −6.567 |
| Clc1ccc2c(NCCCCN(CCc3ccccc3)Cc3ccccc3)ccnc2c1 [SJ000361211] | 23.38 |
| CCCN(CCC)CCCNc1c2ccc(Cl)cc2nc2ccc(OC)cc12 [SJ000520917] | −288.2 |
| CCCN(CCCNc1c2ccc(Cl)cc2nc2ccc(OC)cc12)Cc1ccc(OC)c(OC)c1 [SJ000520957] | −175.5 |
| CC(C)CN(CCCCNc1ccnc2cc(Cl)ccc12)Cc1ccccc1 [SJ000357470] | 25.47 |

| Structure (SMILES) | TR-FRET signal |
| --- | --- |
| CN(C)c1ccc(CN2CCC(Nc3ccnc4cc(Cl)ccc34)CC2)cc1 [SJ000523102] | 13.09 |
| COC(=O)c1ccc(CNCCCNc2c3ccc(Cl)cc3nc3ccc(OC)cc23)cc1 [SJ000522957] | −133 |
| Cc1cc(NC(=O)CN[C@H]2CCN(Cc3cccc(F)c3)C2)c2ccccc2n1 [SJ000832581] | −1.278 |
| O=[N+]([O-])c1ccc(CN(CCCCNc2ccnc3cc(Cl)ccc23)Cc2ccccc2)cc1 [SJ000361202] | 15.25 |
| Cc1cccc(CN2CCC(Nc3ccnc4cc(Cl)ccc34)CC2)c1 [SJ000523101] | 18.54 |
| Clc1ccc2c(NC3CCN(Cc4ccc(Cl)o4)CC3)ccnc2c1 [SJ000311180] | 0.6827 |
| CCOC(=O)c1cnc2ccc(C(=O)OC)cc2c1NCCN1CCOCC1 [SJ000127079] | −7.813 |
| COc1ccccc1N1CCN(c2c(S(=O)(=O)c3ccccc3)cnc3ccc(C)cc23)CC1 [SJ000315081] | −19.55 |
| CCOc1ccc2ncc(S(=O)(=O)c3ccc(C)c(C)c3)c(N3CCN(CC)CC3)c2c1 [SJ000247355] | −13.39 |
| CCCCCCN1CCC(Nc2ccnc3cc(Cl)ccc23)CC1 [SJ000523108] | 29.3 |
| COc1cccc(CN2CCC(Nc3ccnc4cc(Cl)ccc34)CC2)c1O [SJ000357525] | 9.995 |
| CCCN(CCCNc1c2ccc(Cl)cc2nc2ccc(OC)cc12)Cc1ccoc1 [SJ000520937] | −394.6 |
| COc1ccc2nc3cc(Cl)ccc3c(NCCCNCc3ccc(Br)o3)c2c1 [SJ000523030] | −219.4 |
| CCOC(=O)c1cnc2c(Cl)cccc2c1NCCN1CCOCC1 [SJ000163436] | −6.529 |
| COc1ccc2ncc(S(=O)(=O)c3ccccc3)c(N3CCN(c4ccccc4F)CC3)c2c1 [SJ000315263] | −252.5 |
| COc1ccc2nc3cc(Cl)ccc3c(NCCCNCc3cc(F)ccc3F)c2c1 [SJ000361091] | −327.2 |
| COc1ccc2nc3cc(Cl)ccc3c(NCCCNCc3c(F)cccc3C(F)(F)F)c2c1 [SJ000520999] | −116.7 |
| Clc1ccc2c(NCCCCN(Cc3ccccc3)Cc3ccccc3)ccnc2c1 [SJ000522718] | 17.35 |

same assay, conditions: single point TR-FRET screening of quinoline compounds against MAGE-A11:PCF11; 15 μM

| Structure (SMILES) | TR-FRET signal |
| --- | --- |
| CCCN(CCCNc1ccnc2cc(Cl)ccc12)Cc1cn(C)c2ccccc12 [SJ000522995] | −1.532 |
| CCCN(CCCNc1c2ccc(Cl)cc2nc2ccc(OC)cc12)Cc1cc2ccccc2nc1Cl [SJ000522737] | −83.74 |
| CCOC(=O)c1cnc2c(OC)cccc2c1NCCCN1CCOCC1 [SJ000180455] | 3.635 |
| COc1ccc(CN(CCCNc2ccnc3cc(Cl)ccc23)Cc2ccccc2)cc1 [SJ000522720] | 11.78 |
| Clc1ccc2c(NCCCNCc3cc4ccccc4o3)ccnc2c1 [SJ000521029] | 17.91 |
| CCCN(CCCNc1ccnc2cc(C(F)(F)F)ccc12)CC1CC1 [SJ000361266] | 48.15 |
| CCCN(CCCCCC(=O)OC)CCCNc1c2ccc(Cl)cc2nc2ccc(OC)cc12 [SJ000575151] | −37.41 |
| Fc1cccc(CN(CCCNc2ccnc3cc(Cl)ccc23)Cc2ccccc2)c1 [SJ000361176] | 20.36 |
| Clc1ccc2c(NCCCN(Cc3ccccc3)Cc3cccnc3Br)ccnc2c1 [SJ000520462] | 9.715 |
| CCCN(CCCNc1ccnc2cc(C(F)(F)F)ccc12)Cc1ccc[nH]1 [SJ000361255] | 30.66 |
| CCCN(CCCNc1c2ccc(Cl)cc2nc2ccc(OC)cc12)Cc1ccc(N(C)C)cc1 [SJ000520955] | −10.06 |
| Clc1ccc2c(NCCCN(Cc3ccccc3)Cc3csc4ccccc34)ccnc2c1 [SJ000520454] | 28.14 |
| CCCN(CCCNc1ccnc2cc(Cl)ccc12)Cc1cccc(C)c1 [SJ000523041] | 28.55 |
| Fc1ccccc1CN(CCCNc1ccnc2cc(Cl)ccc12)Cc1ccccc1 [SJ000361175] | 0.9627 |
| CCCCNCCCNc1ccnc2cc(C(F)(F)F)ccc12 [SJ000521055] | 18.54 |
| Cc1ccsc1CN(CCCNc1ccnc2cc(Cl)ccc12)Cc1ccccc1 [SJ000357440] | 10.9 |
| CCCN(CCCNc1ccnc2cc(Cl)ccc12)Cc1c2ccccc2cc2ccccc12 [SJ000522762] | 15.49 |
| Clc1ccc2c(NCCCNCC3CCCCC3)ccnc2c1 [SJ000361102] | 15.63 |
| Cn1cccc1CNCCCNc1ccnc2cc(C(F)(F)F)ccc12 [SJ000521041] | −6.879 |
| Clc1ccc2c(NCCCN(Cc3ccccc3)Cc3ccc4[nH]ccc4c3)ccnc2c1 [SJ000520430] | 66.43 |
| COc1ccc(F)c(CN(CCCNc2ccnc3cc(Cl)ccc23)Cc2ccccc2)c1 [SJ000520445] | 4.762 |
| COc1ccc2nc3cc(Cl)ccc3c(NCCCNCc3c(Cl)ccc(Cl)c3Cl)c2c1 [SJ000522960] | −81.49 |

| Structure (SMILES) | TR-FRET signal |
| --- | --- |
| CCCN(CCCNc1ccnc2cc(Cl)ccc12)Cc1ccc([N+](=O)[O-])o1 [SJ000523047] | 9.575 |
| CCCN(CCCNc1ccnc2cc(Cl)ccc12)Cc1ccc(OC)cc1 [SJ000522756] | 19.14 |
| CCCCCN(CCCNc1ccnc2cc(Cl)ccc12)Cc1ccccc1 [SJ000361173] | 26.56 |
| Clc1ccc2c(NCCCN(Cc3ccccc3)Cc3ccco3)ccnc2c1 [SJ000312668] | 0.5217 |
| CCCN(CCCNc1ccnc2cc(C(F)(F)F)ccc12)Cc1ccco1 [SJ000361265] | 24.11 |
| Clc1ccc2c(NCCCN(Cc3ccccc3)Cc3ccsc3)ccnc2c1 [SJ000312675] | 9.598 |
| CN(C)CCCNc1c2ccccc2nc2ccccc12 [SJ000044378] | 16.77 |
| FC(F)(F)Oc1ccccc1CN(CCCNc1ccnc2cc(Cl)ccc12)Cc1ccccc1 [SJ000357599] | 19.76 |
| CCCN(CCCNc1ccnc2cc(C(F)(F)F)ccc12)Cc1cc(F)ccc1OC [SJ000520475] | 15.75 |
| Clc1ccc2c(NCCCN(Cc3ccccc3)Cc3cccc4c3OCO4)ccnc2c1 [SJ000357598] | 3.49 |
| Clc1ccc2c(NCCCNCc3cncc(Br)c3)ccnc2c1 [SJ000521037] | 7.014 |
| CCCCCN(CCC)CCCNc1ccnc2cc(Cl)ccc12 [SJ000522754] | 16.29 |
| CCCCCNCCCNc1ccnc2cc(Cl)ccc12 [SJ000523057] | 25.82 |
| CCCN(CCCNc1c2ccc(Cl)cc2nc2ccc(OC)cc12)Cc1nc(C)cs1 [SJ000522966] | −82.15 |
| CCC(C)CN(CCCNc1ccnc2cc(Cl)ccc12)Cc1ccccc1 (centres unmarked) [SJ000361186] | 29.6 |
| CCCN(CCCNc1ccnc2cc(Cl)ccc12)Cc1cccnc1Br [SJ000523006] | 13.31 |
| COc1ccc2nc3cc(Cl)ccc3c(NCCCNCc3ccc(N(C)C)c4ccccc34)c2c1 [SJ000523028] | −1.532 |
| CCCN(CCCNc1ccnc2cc(Cl)ccc12)Cc1ccc(F)cc1 [SJ000522759] | 20.79 |
| CCCN(CCCNc1c2ccc(Cl)cc2nc2ccc(OC)cc12)Cc1cccnc1 [SJ000575152] | −23.4 |
| CCCN(CCCNc1ccnc2cc(Cl)ccc12)CC1CCCCC1 [SJ000522751] | 15.63 |
| Cc1ccc(C)c(CN(CCCNc2ccnc3cc(Cl)ccc23)Cc2ccccc2)c1 [SJ000361187] | 20.22 |
| COC(=O)CCCCCN(CCCNc1ccnc2cc(Cl)ccc12)Cc1ccccc1 [SJ000520429] | 17.14 |
